Measured values published in ChEMBL document CHEMBL1128141, “Chemical modification of ring c of himbacine: Discovery of a pharmacophoric element for M2-selectivity” (Bioorg Med Chem Lett, 1995).
pKd: −log10 of the molar value.

Key:
[1] = target: Muscarinic acetylcholine receptors; M1 & M2 (Homo sapiens) (UniProt P11229+P08172); test: Ratio of binding affinities towards M2 receptor to M1 receptor; type: protein assay
[2] = target: T1, Muscarinic acetylcholine receptor M2 (Rattus norvegicus, UniProt P10980); test: Binding affinity against M2 receptor in rat brainstem cells using radioligand [3H]quinuclidinyl benzilate ([3H]QNB); type: cell-based, Brain
T1 sequence (P10980 whole entry): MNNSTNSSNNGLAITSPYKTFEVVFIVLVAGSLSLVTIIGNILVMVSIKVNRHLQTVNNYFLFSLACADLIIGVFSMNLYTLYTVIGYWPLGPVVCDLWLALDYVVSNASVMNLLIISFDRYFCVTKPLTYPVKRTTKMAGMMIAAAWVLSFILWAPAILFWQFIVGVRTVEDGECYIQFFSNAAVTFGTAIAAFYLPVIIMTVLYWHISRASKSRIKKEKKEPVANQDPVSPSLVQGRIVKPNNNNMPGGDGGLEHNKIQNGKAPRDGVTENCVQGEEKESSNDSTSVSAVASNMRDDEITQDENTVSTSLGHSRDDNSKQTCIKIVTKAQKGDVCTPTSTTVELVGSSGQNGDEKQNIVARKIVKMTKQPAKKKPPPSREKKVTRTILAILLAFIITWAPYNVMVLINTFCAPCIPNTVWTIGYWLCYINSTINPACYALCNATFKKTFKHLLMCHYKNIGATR

[3] = target: T2, Muscarinic acetylcholine receptor M1 (Homo sapiens, UniProt P11229); test: Binding affinity against M1 receptor expressed in CHO-K1 cells transfected with human muscarinic receptor sequence using radioligand [3H]quinuclidinyl benzilate ([3H]QNB); type: cell-based
T2 sequence (P11229 whole entry): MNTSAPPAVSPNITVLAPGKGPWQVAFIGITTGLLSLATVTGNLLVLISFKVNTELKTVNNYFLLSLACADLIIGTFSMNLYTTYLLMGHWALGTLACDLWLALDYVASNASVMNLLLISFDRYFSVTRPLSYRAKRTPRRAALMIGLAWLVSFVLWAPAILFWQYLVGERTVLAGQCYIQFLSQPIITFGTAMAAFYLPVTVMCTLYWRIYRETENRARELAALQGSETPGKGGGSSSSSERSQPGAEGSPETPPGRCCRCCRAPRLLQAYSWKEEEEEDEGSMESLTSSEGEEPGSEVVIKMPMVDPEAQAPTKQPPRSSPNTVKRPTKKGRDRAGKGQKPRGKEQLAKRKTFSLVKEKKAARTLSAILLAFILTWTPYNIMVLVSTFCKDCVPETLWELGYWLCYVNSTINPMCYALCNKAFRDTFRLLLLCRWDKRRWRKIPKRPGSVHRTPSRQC

Row | Structure (SMILES) | Selectivity [1] | pKd [2] | pKd [3]
1 | CC(=O)O[C@H]1O[C@@H](C)[C@@H]2[C@H](/C=C/[C@H]3CCC[C@H](C)N3C)[C@H]3CCCC[C@@H]3C[C@H]12 | 9.7 | 7.05 | 6.06
2 | C[C@@H]1O[C@H](OC(=O)C(C)(C)C)[C@H]2C[C@H]3CCCC[C@@H]3[C@@H](/C=C/[C@H]3CCC[C@H](C)N3C)[C@H]21 | 5.4 | 6.33 | 5.60
3 | C[C@@H]1O[C@H](O)[C@H]2C[C@H]3CCCC[C@@H]3[C@@H](/C=C/[C@H]3CCC[C@H](C)N3C)[C@H]21 | 4.4 | 7.02 | 6.37
4 | C[C@H](O)[C@H]1[C@@H](CO)C[C@H]2CCCC[C@@H]2[C@H]1/C=C/[C@H]1CCC[C@H](C)N1C | 1.7 | 6.53 | 6.31
5 | C[C@@H]1OC[C@H]2C[C@H]3CCCC[C@@H]3[C@@H](/C=C/[C@H]3CCC[C@H](C)N3C)[C@H]21 | 0.5 | 6.45 | 6.78
6 | C[C@@H]1OC(=O)[C@H]2C[C@H]3CCCC[C@@H]3[C@@H](/C=C/[C@H]3CCC[C@H](C)N3C)[C@@H]12 [HIMBACINE] | 14.8 | 8.00 | 6.83
7 | CC(=O)OC[C@H]1C[C@H]2CCCC[C@@H]2[C@@H](/C=C/[C@H]2CCC[C@H](C)N2C)[C@H]1[C@H](C)OC(C)=O | 2.4 | 6.60 | 6.22
